In brackets after ≈: the same amount, converted by molar mass. Values belong to the compound of their own block, whether it stands above or below them.
What was measured:
[1] = system: MDA-MB-231 cells or MIA PaCa-2 (PACA-2) cells; assay: Cell survival in six-well plates, Wright-Giemsa stain; format: cell-based; conditions: Homo sapiens; 0.1-2 μM, 10-15 days; MDA-MB-231 or Paca-2 cells, cell line of the IC50 not stated
Protocol: Exponentially growing MDA-MB-231 cells or MIA PaCa-2 (also known as PACA-2) cells were seeded at 1,000 cells per well in six-well plates and allowed to attach for 24 hours. MDA-MB-231 and MIA PaCa-2 cells were cultured in DMEM supplemented with 10% (v/v) fetal bovine serum (FBS) and 5 ml Penicillin/Streptomycin at 37° C. in 5% CO2. MDA-MB-231 and MIA PaCa-2 were established in estrogen receptor-negative human breast cancer and pancreatic carcinoma cell lines, respectively. (±)-cis-3-(5,6-dihydro-4H-pyrrolo[3,2,1-ij]quinolin-1-yl)-4-(1H-indol-3-yl)pyrrolidine-2,5-dione or (±)-trans-3-(5,6-dihydro-4H-pyrrolo[3,2,1-ij]quinolin-1-yl)-4-(1H-indol-3-yl)pyrrolidine-2,5-dione were each dissolved at a concentration of 10 mM in DMSO, and separately added to cells at a concentration of 0.1, 0.25, 0.5, 1 or 2 μM. Control plates received DMSO alone, at the same percentage of total culture volume as that administered in conjunction with the highest concentration of drug. Cell cultures were observed daily for 10-15 days, then fixed and stained with modified Wright-Giemsa stain (Sigma). Treatment with (±)-cis-3-(5,6-dihydro-4H-pyrrolo[3,2,1-ij]quinolin-1-yl)-4-(1H-indol-3-yl)pyrrolidine-2,5-dione or (±)-trans-3-(5,6-dihydro-4H-pyrrolo[3,2,1-ij]quinolin-1-yl)-4-(1H-indol-3-yl)pyrrolidine-2,5-dione results in cell death of MDA-MB-231 cells or Paca-2 cells. See, e.g., FIG. 2.

[2] = biological target: Recombinant Protein Kinase C; assay: Protein Kinase C kinase assay (Histone H1, 32P-ATP, autoradiography); format: biochemical; parameters: dose or concentration left out as unconfirmed; conditions: for 15 minutes at room temperature
Protocol: Recombinant Protein Kinase C (Calbiochem) (100 ng) was incubated with (±)-cis-3-(5,6-dihydro-4H-pyrrolo[3,2,1-ij]quinolin-1-yl)-4-(1H-indol-3-yl)pyrrolidine-2,5-dione or (±)-trans-3-(5,6-dihydro-4H-pyrrolo[3,2,1-ij]quinolin-1-yl)-4-(1H-indol-3-yl)pyrrolidine-2,5-dione at […] for 15 minutes at room temperature. Subsequently, a radioactive labeling mix in kinase buffer (20 mM Tris-HCl pH 7.5, 10 mM MgCl2) containing 20 μM ATP, 0.2 μCi/μl γ^32P-ATP, 0.2 μg/μl Histone H1 (Upstate Biotechnology/Millipore, Bedford, Mass.) was added to each sample. The kinase reaction was carried out for 5 minutes at room temperature. Reaction products were analyzed by 12% SDS-PAGE and autoradiography.

[3] = system: MDA-MB-231 cells; assay: Colony formation / surviving fraction assay; format: cell-based; conditions: Homo sapiens, two days incubation, colonies counted two weeks later, read-out: IC50 (surviving fraction equaled 50)
Protocol: MDA-MB-231 cells (ATCC #HTB-26), grown in DMEM plus 15% heat inactivated fetal bovine serum plus 10 mM HEPES pH 7.5, were plated in 60 mm^2 plates (2×10^5 cells per plate). After two days candidate compounds in DMSO at various concentrations were diluted in media and added to individual plates such that the final DMSO concentration in the cell culture media was 0.1%. After two days incubation the culture was trypsinized, cells were washed with media, counted using a hemocytometer and 500 cells, including cell bodies, were plated in 100 mm^2 plates in media. Two weeks later the media was removed and the cell colonies were fixed with methanol for 10 minutes, stained with 1% crystal violet for 10 minutes, washed with water and air dried. Cell colonies were visually counted when there were greater then 50 cells present per colony. Plating efficiency was defined as the average number of colonies formed divided by 500. The surviving fraction was defined as the plating efficiency of a candidate compound divided by the plating efficiency of DMSO multiplied by 100. For candidate compound titrations, the IC50 value was determined by fitting the equation y=Ae^Bx to the data points and extrapolating the concentration where surviving fraction equaled 50. […]

[4] = biological target: c-Met (Homo sapiens, UniProt P08581); assay: c-Met phosphorylation in MDA-MB-231 cells, basal and HGF-induced (Western blot); format: cell-based; parameters: Whole cell extracts were prepared in lysis buffer; endogenous in cells; host or cells: MDA-MB-231; conditions: 20 μM
Protocol: MDA-MB-231 cells were serum-deprived overnight (16 hours) in the absence or in the presence of the indicated concentrations of the separate enantiomers (+)-trans-3-(5,6-dihydro-4H-pyrrolo[3,2,1-ij]quinolin-1-yl)-4-(1H-indol-3-yl)pyrrolidine-2,5-dione and (−)-trans-3-(5,6-dihydro-4H-pyrrolo[3,2,1-ij]quinolin-1-yl)-4-(1H-indol-3-yl)pyrrolidine-2,5-dione. Cells were treated with 100 ng/ml recombinant human Hepatocyte Growth Factor/Scatter Factor (HGF/SF) (R&D Systems #294-HG) for 10 minutes. Whole cell extracts were prepared in lysis buffer (20 mM Tris-HCl pH 7.5, 150 mM NaCl, 1 mM Na2EDTA, 1 mM EGTA, 1% Triton X-100, 2.5 mM sodium pyrophosphate, 1 mM beta-glycerophosphate, 1 mM Na3VO4, 1 μg/ml leupeptin, 1 mM phenylmethylsulfonyl fluoride) and sonicated. Protein concentration was measured by Bradford assay using the BioRad reagent (BioRad, Hercules, Calif.), according to the manufacturer's directions. Samples ([…] of protein) were resolved by 8% SDS-PAGE under reducing conditions and transferred onto a PVDF membrane (BioRad). […] Proteins were detected by incubation overnight at 4° C. in TBS-T with 5% milk and either a polyclonal antibody against phosphorylated c-Met (#3121) or a monoclonal antibody against β-actin (A-5441) (Sigma), which was used as a control for total protein loading. […]

[5] = physchem; format: physicochemical
Protocol: Form 1 and Form 2 have different equilibrium solubilities: Form 2=0.61 mg/mL and Form 1=0.51 mg/mL.

[6] = Interconversion experiments (thermodynamic stability of polymorphs); format: physicochemical
Protocol: Form 1 is orthorhombic and contains four molecules of (−)-trans-3-(5,6-dihydro-4H-pyrrolo[3,2,1-ij]quinolin-1-yl)-4-(1H-indol-3-yl)pyrrolidine-2,5-dione per cell. Form 1 has a melting point of ˜218° C. recorded in DSC (See, FIG. 16).
The two polymorphs can be interconverted when proper conditions are used to control the crystallization process. Form 2 can be obtained by dissolving Form 1 in methanol, seeding with Form 2 and evaporating the mixture to dryness by rotary evaporation. The successful conversion was determined to be Form 2 by IR analysis and corroborated by XRPD analysis.

[7] = Storage stability of Form 2; format: physicochemical; conditions: 40° C./75% RH for up to six months and 25° C./60% RH for up to 12 months; multiple batches

Chain of c-Met (P08581 25-1390): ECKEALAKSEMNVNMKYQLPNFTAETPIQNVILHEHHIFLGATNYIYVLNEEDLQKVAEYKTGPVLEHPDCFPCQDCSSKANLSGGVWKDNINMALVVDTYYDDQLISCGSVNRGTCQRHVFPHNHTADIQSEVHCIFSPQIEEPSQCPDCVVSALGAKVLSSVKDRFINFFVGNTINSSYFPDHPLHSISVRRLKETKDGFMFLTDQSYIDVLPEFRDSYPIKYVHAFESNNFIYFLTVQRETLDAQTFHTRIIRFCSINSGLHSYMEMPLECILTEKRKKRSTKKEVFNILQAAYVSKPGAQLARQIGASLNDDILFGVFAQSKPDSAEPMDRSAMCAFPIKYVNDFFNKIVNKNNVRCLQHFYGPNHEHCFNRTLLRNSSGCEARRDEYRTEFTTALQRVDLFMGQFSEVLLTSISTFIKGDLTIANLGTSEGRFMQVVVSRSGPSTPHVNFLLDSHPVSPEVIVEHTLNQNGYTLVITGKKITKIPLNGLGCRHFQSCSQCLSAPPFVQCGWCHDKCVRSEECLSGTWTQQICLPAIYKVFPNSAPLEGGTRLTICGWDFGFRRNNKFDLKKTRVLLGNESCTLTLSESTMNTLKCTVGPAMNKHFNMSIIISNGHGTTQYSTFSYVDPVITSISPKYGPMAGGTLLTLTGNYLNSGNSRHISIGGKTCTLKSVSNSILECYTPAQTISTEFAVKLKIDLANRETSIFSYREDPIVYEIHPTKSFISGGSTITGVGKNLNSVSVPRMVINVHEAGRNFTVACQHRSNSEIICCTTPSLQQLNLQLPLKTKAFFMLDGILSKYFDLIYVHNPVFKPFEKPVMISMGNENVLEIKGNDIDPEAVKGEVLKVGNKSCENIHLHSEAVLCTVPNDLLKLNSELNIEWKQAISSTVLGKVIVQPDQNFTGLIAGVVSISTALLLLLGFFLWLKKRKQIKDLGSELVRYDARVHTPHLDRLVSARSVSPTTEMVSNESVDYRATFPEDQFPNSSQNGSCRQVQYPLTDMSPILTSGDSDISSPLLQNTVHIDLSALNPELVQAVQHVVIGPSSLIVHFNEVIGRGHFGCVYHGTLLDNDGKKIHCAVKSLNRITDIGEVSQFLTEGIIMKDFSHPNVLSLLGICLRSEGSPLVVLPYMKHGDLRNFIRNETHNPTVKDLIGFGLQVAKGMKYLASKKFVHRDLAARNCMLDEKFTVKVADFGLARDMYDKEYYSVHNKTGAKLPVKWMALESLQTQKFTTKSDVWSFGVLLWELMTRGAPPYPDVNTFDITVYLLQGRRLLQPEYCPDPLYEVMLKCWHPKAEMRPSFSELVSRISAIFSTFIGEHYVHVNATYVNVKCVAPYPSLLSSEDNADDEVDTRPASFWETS

kinase activity in comparison to treatment with carrier alone [2]: did not reduce kinase activity
SMILES: O=C1NC(=O)[C@@H](c2cn3c4c(cccc24)CCC3)[C@H]1c1c[nH]c2ccccc12 (racemic) [(±)-cis-3-(5,6-dihydro-4H-pyrrolo[3,2,1-ij]quinolin-1-yl)-4-(1H-indol-3-yl)pyrrolidine-2,5-dione]
IC50 [1]: 500 nM

kinase activity in comparison to treatment with carrier alone [2]: did not reduce kinase activity
SMILES: O=C1NC(=O)[C@@H](c2cn3c4c(cccc24)CCC3)[C@@H]1c1c[nH]c2ccccc12 (racemic) [(±)-trans-3-(5,6-dihydro-4H-pyrrolo[3,2,1-ij]quinolin-1-yl)-4-(1H-indol-3-yl)pyrrolidine-2,5-dione]
IC50 [1]: 500 nM

inhibitory effect on c-Met phosphorylation [4]: only a minimum inhibitory effect
SMILES: O=C1NC(=O)[C@@H](c2cn3c4c(cccc24)CCC3)[C@@H]1c1c[nH]c2ccccc12 [(+)-trans-3-(5,6-dihydro-4H-pyrrolo[3,2,1-ij]quinolin-1-yl)-4-(1H-indol-3-yl)pyrrolidine-2,5-dione]
IC50 [3]: 4100 nM

equilibrium solubilities [5]: 0.51 mg/mL
SMILES: O=C1NC(=O)[C@@H](c2cn3c4c(cccc24)CCC3)[C@@H]1c1c[nH]c2ccccc12 [Form 1, (−)-trans-3-(5,6-dihydro-4H-pyrrolo[3,2,1-ij]quinolin-1-yl)-4-(1H-indol-3-yl)pyrrolidine-2,5-dione]
thermodynamic stability [6]: more thermodynamically stable than Form 2

solubility thermodynamic ([5]; thermodynamic from solid, equilibrium solubilities): 610 µg/mL (≈ 1650 µM)
SMILES: O=C1NC(=O)[C@@H](c2cn3c4c(cccc24)CCC3)[C@@H]1c1c[nH]c2ccccc12 [Form 2, (−)-trans-3-(5,6-dihydro-4H-pyrrolo[3,2,1-ij]quinolin-1-yl)-4-(1H-indol-3-yl)pyrrolidine-2,5-dione]
change in crystalline form or purity upon storage [7]: No discernable change in crystalline form or purity

Source: patent publication US8871933B2, “Purified pyrroloquinolinyl-pyrrolidine-2,5-dione compositions and methods for preparing and using same” (ArQule, Inc., priority 2009, dated 2014)
